Test results taken from ChEMBL document CHEMBL4483862, “Open-source discovery of chemical leads for next-generation chemoprotective antimalarials” (2018).

Tested on: Plasmodium berghei
Experiment: Luciferase/luciferin-expressing antifolate-resistant parasites were used to infect a culture of HepG2 cells that were pre-incubated with compounds. Infected hepatocytes emit light due to the luciferase reaction. Assay results are presented as the percent inhibition of light emission compared to control. […]
Type: functional
Conditions: sporozoite; for IC90: read-out: LUCIFERASE INFECTION ASSAY - IC90
[1] = read-out: LUCIFERASE INFECTION ASSAY - IC50

SMILES | IC50 [1] [µM] | IC90 [µM] | other results
CSc1cc(-c2sc3scc(C)c3c2C)n[nH]1 | > 11.8 | > 11.8 | 
C=CC/N=c1\scc(-c2ccc(OC(F)F)cc2)n1/N=C/c1ccc(O)cc1O |  | > 10 | IC50 (PBLUC_HILL_SLOPE 2.81, PBLUC_R_SQUARED 0.0539, read-out: LUCIFERASE INFECTION ASSAY - IC50): > 10 µM
CCCCn1nnnc1COC(=O)c1ccccc1Sc1ccccc1C#N | > 10 | > 10 | 
COc1cn(-c2ccccc2)nc1C(=O)N1CCc2ccccc21 |  | 0.243 | IC50 (HEPG2TOX_HILL_SLOPE 1.58, HEPG2TOX_R_SQUARED 0.907, PBLUC_HILL_SLOPE 2.39, PBLUC_R_SQUARED 0.888, read-out: LUCIFERASE INFECTION ASSAY - IC50): 0.0972 µM
N#CCC(=O)NN1Cc2ccccc2C1=N | > 10 | > 10 | 
OCCCNc1ccc2ncc(-c3cccc(C(F)(F)F)c3)n2n1 |  | 1.21 | IC50 (HEPG2TOX_HILL_SLOPE 0.946, HEPG2TOX_R_SQUARED 0.925, PBLUC_HILL_SLOPE 15.6, PBLUC_R_SQUARED 0.717, read-out: LUCIFERASE INFECTION ASSAY - IC50): 1.05 µM
Cc1cccc(C)c1N1C(=O)CC(N2CCCC(c3nc4ccccc4s3)C2)C1=O (stereo unspecified) |  | 9.05 | IC50 (PBLUC_HILL_SLOPE 1.45, PBLUC_R_SQUARED 0.739, read-out: LUCIFERASE INFECTION ASSAY - IC50): 1.99 µM
CNS(=O)(=O)c1ccc(NC(=O)c2ccc3[nH]c(C)c(C)c3c2)cc1 | > 10 | > 10 | 
CCN(CCO)c1ccc(Nc2cc(C(=O)Nc3ccccc3)ncn2)cc1 |  | 7.92 | IC50 (HEPG2TOX_HILL_SLOPE 13.5, HEPG2TOX_R_SQUARED 0.28, PBLUC_HILL_SLOPE 1.45, PBLUC_R_SQUARED 0.807, read-out: LUCIFERASE INFECTION ASSAY - IC50): 1.74 µM
COCCNc1ccc(C(=O)NCCN2CCN(c3cccc(C)c3)CC2)cc1[N+](=O)[O-] |  | > 10 | IC50 (PBLUC_HILL_SLOPE 2.05, PBLUC_R_SQUARED 0.556, read-out: LUCIFERASE INFECTION ASSAY - IC50): 6.29 µM
Cc1ccc(C(C)C)cc1OCC(=O)N1CCC(C(=O)Nc2ccccc2O)CC1 |  | 4.58 | IC50 (PBLUC_HILL_SLOPE 135, PBLUC_R_SQUARED 0.614, read-out: LUCIFERASE INFECTION ASSAY - IC50): 4.51 µM
OC1CCC(Nc2ccc3ncc(Br)n3n2)CC1 (stereo unspecified) |  | > 10.6 | IC50 (HEPG2TOX_HILL_SLOPE 1.63, HEPG2TOX_R_SQUARED 0.931, read-out: LUCIFERASE INFECTION ASSAY - IC50): > 10.6 µM
Cc1c(-n2nnnc2SCC(C)C)c(=O)n(-c2ccccc2)n1C | > 10 | > 10 | 
O=C(COC(=O)Cc1ccsc1)Nc1cc(Cl)ccc1-n1cncn1 | > 10 | > 10 | 
CCn1c(NC(=O)c2oc3ccccc3c2COC)nc2ccccc21 |  | 4.5 | IC50 (PBLUC_HILL_SLOPE 11.7, PBLUC_R_SQUARED 0.368, read-out: LUCIFERASE INFECTION ASSAY - IC50): 3.72 µM
CC1CCC(NC(=O)c2ccc(S(=O)(=O)Nc3ccccc3)cc2)CC1 (stereo unspecified) | > 10 | > 10 | 
CSc1nccc(-c2ccc(Cl)cc2)n1 |  | > 13.9 | IC50 (FFLUC_HILL_SLOPE 5.64, FFLUC_R_SQUARED 0.137, read-out: LUCIFERASE INFECTION ASSAY - IC50): > 13.9 µM
COc1cccc(-c2cc(=O)n3c(nc4ccccc43)[nH]2)c1 | > 11.3 | > 11.3 | 
COc1ccc(-c2cc(NC(=O)C3CCN(C(=O)C(C)C)CC3)ccc2OC(F)F)cc1 |  | > 10 | IC50 (PBLUC_HILL_SLOPE 1.23, PBLUC_R_SQUARED 0.265, read-out: LUCIFERASE INFECTION ASSAY - IC50): 3.95 µM
CNC(=O)c1ccc(CN(Cc2ccc(SC)cc2)Cc2ccco2)cc1 |  | 0.736 | IC50 (PBLUC_HILL_SLOPE 13.4, PBLUC_R_SQUARED 0.501, read-out: LUCIFERASE INFECTION ASSAY - IC50): 0.624 µM
Oc1cccc(-c2cnc3cnc(-c4ccc(CNc5ccccc5)cc4)cn23)c1 |  | 2.92 | IC50 (FFLUC_HILL_SLOPE 1.01, FFLUC_R_SQUARED 0.213, PBLUC_HILL_SLOPE 39.2, PBLUC_R_SQUARED 0.71, read-out: LUCIFERASE INFECTION ASSAY - IC50): 2.76 µM
COc1ccc(-c2nn(-c3ccccc3)cc2/C=C/C(=O)Nc2nc3c(C)cccc3s2)cc1OC | 6.8 | > 10 | 
CCn1c2ccccc2c2cc(Nc3cc(-c4ccc(O)cc4)ncn3)ccc21 | 2.24 | 5.79 | 
Cc1cc(C)c(C#N)c(SCC(=O)N(C)Cc2cnn(-c3ccccc3)c2)n1 |  | > 10 | IC50 (PBLUC_HILL_SLOPE 0.688, PBLUC_R_SQUARED 0.271, read-out: LUCIFERASE INFECTION ASSAY - IC50): 4.09 µM

SMILES | IC50 [1] [µM] | IC90 [µM] | other results
O=C(Nc1ccccn1)c1ccc(Cl)c(S(=O)(=O)N(Cc2ccccc2)c2ccccc2)c1 |  | > 10 | IC50 (PBLUC_HILL_SLOPE 2.32, PBLUC_R_SQUARED 0.355, read-out: LUCIFERASE INFECTION ASSAY - IC50): 5.62 µM
O=C(Nc1ccnn1Cc1ccc(Cl)cc1Cl)c1cccc(NC(=O)c2cccs2)c1 |  | > 10 | IC50 (HEPG2TOX_HILL_SLOPE 6.41, HEPG2TOX_R_SQUARED 0.384, PBLUC_HILL_SLOPE 10.4, PBLUC_R_SQUARED 0.292, read-out: LUCIFERASE INFECTION ASSAY - IC50): 8.61 µM
CCOCc1c(C(=O)Nc2ccccc2N2CCN(C)CC2)oc2ccccc12 |  | 7.05 | IC50 (PBLUC_HILL_SLOPE 0.969, 2.85, PBLUC_R_SQUARED 0.516, 0.696, read-out: LUCIFERASE INFECTION ASSAY - IC50): 2.83 µM
C/N=c1\scc(-c2ccc(OC(F)F)cc2)n1/N=C/c1cccs1 |  | 2.72 | IC50 (FFLUC_HILL_SLOPE 2.65, FFLUC_R_SQUARED 0.0605, PBLUC_HILL_SLOPE 1.58, PBLUC_R_SQUARED 0.688, read-out: LUCIFERASE INFECTION ASSAY - IC50): 0.676 µM
CCCCCn1c(SCC(=O)Nc2ccc(C(C)C)cc2)n[nH]c1=O |  | 3.43 | IC50 (HEPG2TOX_HILL_SLOPE 1.82, HEPG2TOX_R_SQUARED 0.814, PBLUC_HILL_SLOPE 12.7, PBLUC_R_SQUARED 0.412, read-out: LUCIFERASE INFECTION ASSAY - IC50): 2.89 µM
COc1cccc(/N=C2\SCC(C)(C)N2C(=O)c2ccccc2OCc2ccccc2C)c1 |  | > 10 | IC50 (HEPG2TOX_HILL_SLOPE 1.35, HEPG2TOX_R_SQUARED 0.857, read-out: LUCIFERASE INFECTION ASSAY - IC50): > 10 µM
Cn1c(N)c(N2CCNCC2)c(=O)n(C)c1=O | > 10 | > 10 | 
CC(C)(C)c1cc(C(=O)Nc2cccc(Cl)c2)n(Cc2ccc(Cl)cc2Cl)n1 |  | > 7.56 | IC50 (FFLUC_HILL_SLOPE 10.5, FFLUC_R_SQUARED 0.365, read-out: LUCIFERASE INFECTION ASSAY - IC50): > 7.56 µM
CCOc1ccc(C(C)NC(=O)C(=O)c2c(C)nn(-c3ccccc3)c2C)cc1 (stereo unspecified) |  | 9.94 | IC50 (HEPG2TOX_HILL_SLOPE 9.83, HEPG2TOX_R_SQUARED 0.28, PBLUC_HILL_SLOPE 22.8, PBLUC_R_SQUARED 0.679, read-out: LUCIFERASE INFECTION ASSAY - IC50): 9.03 µM
Cc1ccc(NN2C(=O)C=C(c3ccc(Cl)cc3)C2=O)cc1 | > 10.6 | > 10.6 | 
CSc1nnc(Sc2nc(-c3cccnc3)nc3ccccc23)s1 | > 10 | > 10 | 
O=C(CC(NC(=O)c1ccccc1Cl)c1ccccc1)Oc1ccc2c(c1)OCO2 (stereo unspecified) | > 10 | > 10 | 
O=C(CCSc1nc(NC2CC2)c2ccccc2n1)N1CCc2ccccc21 | 3.46 | 7.86 | 
Cc1cc(C(=O)CSc2nnc(C3CC3)[nH]2)c(C)n1CCC1=CCCCC1 | > 10 | > 10 | 
COc1cccc(Nc2nccc3c2cc(-c2cccc(OC)c2)n3C)c1 |  | > 10 | IC50 (PBLUC_HILL_SLOPE 0.902, PBLUC_R_SQUARED 0.605, read-out: LUCIFERASE INFECTION ASSAY - IC50): 2.59 µM
O=C(NNC(=O)c1cnn(-c2ccccc2)c1C(F)(F)F)c1ccc2ccccc2n1 |  | 3.75 | IC50 (HEPG2TOX_HILL_SLOPE 2.84, HEPG2TOX_R_SQUARED 0.957, PBLUC_HILL_SLOPE 16.4, PBLUC_R_SQUARED 0.688, read-out: LUCIFERASE INFECTION ASSAY - IC50): 3.28 µM
Cc1nn(-c2ccccc2)c(Cl)c1CSc1nnc(/C=C/c2ccc(F)cc2)[nH]1 | > 10 | > 10 | 
Cn1cnnc1C1CCCN(S(C)(=O)=O)C1 (stereo unspecified) | > 10 | > 10 | 
O=C(NCc1ccccc1)c1cccc(C2(CNc3cccc(OC(F)(F)F)c3)CC2)c1 | > 10 | > 10 | 
C=CCN(c1ccccc1OC)S(=O)(=O)c1cccc(C(=O)Oc2c(Cl)cc(Cl)c3ccc(C)nc23)c1 |  | 6.11 | IC50 (PBLUC_HILL_SLOPE 68.6, PBLUC_R_SQUARED 0.538, read-out: LUCIFERASE INFECTION ASSAY - IC50): 5.92 µM
Cn1c(NCc2ccccc2)nc2cnc(-c3ccsc3)cc21 | > 10 | > 10 | 
Cc1ccc(S(=O)(=O)Nc2ccc(Nc3nccn4c(-c5cccc(OC(F)(F)F)c5)cnc34)cc2)cc1 |  | > 6.12 | IC50 (PBLUC_HILL_SLOPE 2.83, PBLUC_R_SQUARED 0.42, read-out: LUCIFERASE INFECTION ASSAY - IC50): 3 µM
CC(C)(C)c1ccccc1NC(=O)Nc1nc(C(N)CCc2ccccc2)cs1 (stereo unspecified) |  | 8 | IC50 (PBLUC_HILL_SLOPE 12.3, PBLUC_R_SQUARED 0.125, read-out: LUCIFERASE INFECTION ASSAY - IC50): 6.69 µM
Cc1cnc(NC(=O)c2ccc(Cl)c(S(=O)(=O)N(Cc3ccccc3)c3ccccc3Cl)c2)s1 | > 10 | > 10 | 
